Reference: patent US11254663B2 (BRISTOL-MYERS SQUIBB COMPANY, priority 2019, dated 2022)

Each molecule was assayed against FXR (Homo sapiens (Human), UniProt Q96RI1) (assay: transient human FXR/Gal4-luciferase reporter assay). Conditions: Gal4-hFXR fusion construct, HEK293 reporter cells; response relative to 8 μM GW-4064.
Assay type: cell-based
How it was run: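 Compound exposure ran overnight at 37 °C and activity was measured as luminescence with Steady-Glo reagent. The cells were a HEK293 line stably expressing firefly luciferase under five Gal4 response elements. They were transiently transfected, one night beforehand, with a plasmid encoding Gal4 DNA-binding domain fused to the human FXR ligand-binding domain.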

Sequence of FXR (Q96RI1 262-486): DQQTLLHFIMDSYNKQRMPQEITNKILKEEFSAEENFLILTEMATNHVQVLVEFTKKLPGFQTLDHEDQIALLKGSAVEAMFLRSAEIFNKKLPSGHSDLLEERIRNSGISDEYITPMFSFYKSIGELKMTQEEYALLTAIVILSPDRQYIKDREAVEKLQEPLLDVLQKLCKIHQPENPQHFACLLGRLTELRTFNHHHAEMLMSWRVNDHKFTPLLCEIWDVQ

EC50 [nM]	SMILES
142	CC(C)OC(=O)NC12CCC(CN(C(=O)C3CC(O)(C(F)(F)F)C3)c3cccc(-c4ccc(C(C)(C)O)cc4)c3)(CC1)CC2 (stereo not drawn) [Example 602, Isopropyl (4-(((cis)-3-hydroxy-N-(4′-(2-hydroxypropan-2-yl)-[1,1′-biphenyl]-3-yl)-3-(trifluoromethyl)cyclobutane-1-carboxamido)methyl)bicyclo[2.2.2]octan-1-yl)carbamate]
1820	O=C(C1CC(O)(C(F)(F)F)C1)N(CC12CCC(NS(=O)(=O)C(F)(F)F)(CC1)CC2)c1cccc(-c2ccc(OC(F)F)cc2)c1 (stereo not drawn) [Example 603, (cis)-N-(4′-(difluoromethoxy)-[1,1′-biphenyl]-3-yl)-3-hydroxy-3-(trifluoromethyl)-N-((4-((trifluoromethyl)sulfonamido)bicyclo[2.2.2]octan-1-yl)methyl)cyclobutane-1-carboxamide]
968	CC(C)NC(=O)NC12CCC(CN(C(=O)C3CC(O)(C(F)(F)F)C3)c3cccc(-c4ccc(OC(C)C)cc4)c3)(CC1)CC2 (stereo not drawn) [Example 604, (cis)-3-hydroxy-N-(4′-isopropoxy-[1,1′-biphenyl]-3-yl)-N-((4-(3-isopropylureido)bicyclo[2.2.2]octan-1-yl)methyl)-3-(trifluoromethyl)cyclobutane-1-carboxamide]
47	CC(C)Oc1ccc(-c2ccnc(N(CC34CCC(c5noc(C(C)(F)F)n5)(CC3)CC4)C(=O)OC(C)(C)C(F)(F)F)c2)cc1 [Example 610, 1,1,1-trifluoro-2-methylpropan-2-yl ((4-(5-(1,1-difluoroethyl)-1,2,4-oxadiazol-3-yl)bicyclo[2.2.2]octan-1-yl)methyl)(4-(4-isopropoxyphenyl)pyridin-2-yl)carbamate]
41	CC(C)(C)NC(=O)N(CC12CCC(c3noc(C(F)(F)F)n3)(CC1)CC2)c1cccc(-c2ccc(C(C)(C)O)cc2)c1 [Example 611, 3-(tert-butyl)-1-(4′-(2-hydroxypropan-2-yl)-[1,1′-biphenyl]-3-yl)-1-((4-(5-(trifluoromethyl)-1,2,4-oxadiazol-3-yl)bicyclo[2.2.2]octan-1-yl)methyl) urea]
65	CC(C)(C)NC(=O)N(CC12CCC(c3noc(C(F)(F)F)n3)(CC1)CC2)c1cccc(-c2ccc(OC(F)F)cc2)c1 [Example 612, 3-(tert-butyl)-1-(4′-(difluoromethoxy)-[1,1′-biphenyl]-3-yl)-1-((4-(5-(trifluoromethyl)-1,2,4-oxadiazol-3-yl)bicyclo[2.2.2]octan-1-yl)methyl)urea]
79	CC(C)(C)NC(=O)N(CC12CCC(c3noc(C(F)(F)F)n3)(CC1)CC2)c1cccc(-c2ccc(C(C)(C)OC(F)F)cc2)c1 [Example 613, 3-(tert-butyl)-1-(4′-(2-(difluoromethoxy)propan-2-yl)-[1,1′-biphenyl]-3-yl)-1-((4-(5-(trifluoromethyl)-1,2,4-oxadiazol-3-yl)bicyclo[2.2.2]octan-1-yl)methyl)urea]
171	CC(C)(O)c1ccc(-c2cccc(N(CC34CCC(c5noc(C(F)(F)F)n5)(CC3)CC4)C(=O)NCC3CC4(CC4)C3)c2)cc1 [Example 614, 1-(4′-(2-hydroxypropan-2-yl)-[1,1′-biphenyl]-3-yl)-3-(spiro[2.3]hexan-5-ylmethyl)-1-((4-(5-(trifluoromethyl)-1,2,4-oxadiazol-3-yl)bicyclo[2.2.2]octan-1-yl)methyl)urea]
50	CC(C)(O)c1ccc(-c2cccc(N(CC34CCC(c5nc(C6CC6)no5)(CC3)CC4)C(=O)OC(C)(C)C(F)(F)F)c2)cc1 [Example 623, 1,1,1-trifluoro-2-methylpropan-2-yl((4-(3-cyclopropyl-1,2,4-oxadiazol-5-yl)bicyclo[2.2.2]octan-1-yl)methyl)(4′-(2-hydroxypropan-2-yl)-[1,1′-biphenyl]-3-yl)carbamate]

Continued, molecule first:

SMILES	EC50 [nM]
CC(C)(O)c1ccc(-c2cccc(N(CC34CCC(c5noc(C(C)(C)F)n5)(CC3)CC4)C(=O)N[C@H]3CC[C@](C)(O)CC3)c2)cc1 [Example 599, 1-((4-(5-(2-fluoropropan-2-yl)-1,2,4-oxadiazol-3-yl)bicyclo[2.2.2]octan-1-yl)methyl)-3-((trans)-4-hydroxy-4-methylcyclohexyl)-1-(4′-(2-hydroxypropan-2-yl)-[1,1′-biphenyl]-3-yl)urea]	30
CC(C)(O)c1ccc(-c2ccnc(N(CC34CCC(c5ccc(C(C)(F)F)cn5)(CC3)CC4)C(=O)OC(C)(C)C(F)(F)F)c2)cc1 [Example 605, 1,1,1-trifluoro-2-methylpropan-2-yl((4-(5-(1,1-difluoroethyl)pyridin-2-1)bicyclo[2.2.2]octan-1-yl)methyl)(4-(4-(2-hydroxypropan-2-yl)phenyl)pyridin-2-yl)carbamate]	52
CC(C)(C#N)Oc1ccc(-c2ccnc(N(CC34CCC(c5ccc(C(C)(F)F)cn5)(CC3)CC4)C(=O)OC(C)(C)C(F)(F)F)c2)cc1 [Example 606, 1,1,1-trifluoro-2-methylpropan-2-yl (4-(4-((2-cyanopropan-2-yl)oxy)phenyl)pyridin-2-yl)((4-(5-(1,1-difluoroethyl)pyridin-2-yl)bicyclo[2.2.2]octan-1-yl)methyl)carbamate]	95
CC(C)(O)c1ccc(-c2ccnc(N(CC34CCC(c5ccc(C(C)(F)F)cn5)(CC3)CC4)C(=O)OC(C)(C)C(F)(F)F)c2)nc1 [Example 607, 1,1,1-trifluoro-2-methylpropan-2-yl ((4-(5-(1,1-difluoroethyl)pyridin-2-yl)bicyclo[2.2.2]octan-1-yl)methyl)(5-(2-hydroxypropan-2-yl)-[2,4′-bipyridin]-2′-yl)carbamate]	96
CC(C)(O)c1cnc(-c2ccnc(N(CC34CCC(c5ccc(C(C)(F)F)cn5)(CC3)CC4)C(=O)OC(C)(C)C(F)(F)F)c2)nc1 [Example 608, 1,1,1-trifluoro-2-methylpropan-2-yl ((4-(5-(1,1-difluoroethyl)pyridin-2-yl)bicyclo[2.2.2]octan-1-yl)methyl)(4-(5-(2-hydroxypropan-2-yl)pyrimidin-2-yl)pyridin-2-yl) carbamate]	301
CC(C)(O)c1ccc(-c2ccnc(N(CC34CCC(c5noc(C(C)(F)F)n5)(CC3)CC4)C(=O)OC(C)(C)C(F)(F)F)c2)cc1 [Example 609, 1,1,1-trifluoro-2-methylpropan-2-yl((4-(5-(1,1-difluoroethyl)-1,2,4-oxadiazol-3-yl)bicyclo[2.2.2]octan-1-yl)methyl)(4-(4-(2-hydroxypropan-2-yl)phenyl)pyridin-2-yl)carbamate]	30
CC(F)(F)c1nc(C23CCC(CN(C(=O)OC(C)(C)C(F)(F)F)c4cc(-c5ccc(OC(F)(F)Cl)cc5)ccn4)(CC2)CC3)no1 [Example 615, 1,1,1-trifluoro-2-methylpropan-2-yl (4-(4-(chlorodifluoromethoxy)phenyl)pyridin-2-yl)((4-(5-(1,1-difluoroethyl)-1,2,4-oxadiazol-3-yl)bicyclo[2.2.2]octan-1-yl)methyl)carbamate]	473
CC(C)Oc1ccc(-c2cc(N(CC34CCC(c5nc(C6CC6)no5)(CC3)CC4)C(=O)OC(C)(C)C(F)(F)F)ncc2F)cc1 [Example 617, 1,1,1-trifluoro-2-methylpropan-2-yl ((4-(3-cyclopropyl-1,2,4-oxadiazol-5-yl)bicyclo[2.2.2]octan-1-yl)methyl)(5-fluoro-4-(4-isopropoxyphenyl)pyridin-2-yl)carbamate]	81
CC(C)(O)c1ccc(-c2cc(N(CC34CCC(c5nc(C6CC6)no5)(CC3)CC4)C(=O)OC(C)(C)C(F)(F)F)ncc2F)cc1F [Example 618, 1,1,1-trifluoro-2-methylpropan-2-yl((4-(3-cyclopropyl-1,2,4-oxadiazol-5-yl)bicyclo[2.2.2]octan-1-yl)methyl)(5-fluoro-4-(3-fluoro-4-(2-hydroxypropan-2-yl)phenyl)pyridin-2-yl) carbamate]	49
CC(C)(C)COC(=O)N(CC12CCC(c3noc(C(C)(F)F)n3)(CC1)CC2)c1cc(-c2ccc(C(C)(C)O)cc2)c(F)cn1 [Example 619, Neopentyl ((4-(5-(1,1-difluoroethyl)-1,2,4-oxadiazol-3-yl)bicyclo[2.2.2]octan-1-yl)methyl) (5-fluoro-4-(4-(2-hydroxypropan-2-yl)phenyl)pyridin-2-yl) carbamate]	28
CC(C)(O)c1ccc(-c2cc(N(CC34CCC(c5noc(C(C)(C)F)n5)(CC3)CC4)C(=O)OC(C)(C)C(F)(F)F)ncc2F)cc1 [Example 620, 1,1,1-trifluoro-2-methylpropan-2-yl(5-fluoro-4-(4-(2-hydroxypropan-2-yl)phenyl)pyridin-2-yl)((4-(5-(2-fluoropropan-2-yl)-1,2,4-oxadiazol-3-yl)bicyclo[2.2.2]octan-1-yl)methyl) carbamate]	29
CC(C)(F)c1nc(C23CCC(CN(C(=O)OC(C)(C)C(F)(F)F)c4cc(-c5cnn(CC6COC6)c5)c(F)cn4)(CC2)CC3)no1 [Example 621, 1,1,1-trifluoro-2-methylpropan-2-yl(5-fluoro-4-(1-(oxetan-3-ylmethyl)-1H-pyrazol-4-yl)pyridin-2-yl)((4-(5-(2-fluoropropan-2-yl)-1,2,4-oxadiazol-3-yl)bicyclo[2.2.2]octan-1-yl)methyl)carbamate]	84
CC(C)(C#N)Oc1ccc(-c2ccnc(N(CC34CCC(c5nc(C6CC6)no5)(CC3)CC4)C(=O)OC(C)(C)C(F)(F)F)c2)cc1 [Example 622, 1,1,1-trifluoro-2-methylpropan-2-yl(4-(4-((2-cyanopropan-2-yl)oxy)phenyl)pyridin-2-yl) ((4-(3-cyclopropyl-1,2,4-oxadiazol-5-yl)bicyclo[2.2.2]octan-1-yl)methyl)carbamate]	34
CC(C)(OC(=O)N(CC12CCC(c3noc(C4(F)CC4)n3)(CC1)CC2)c1cc(-c2ccc(OC(F)F)cc2)ccn1)C(F)(F)F [Example 624, 1,1,1-trifluoro-2-methylpropan-2-yl(4-(4-(difluoromethoxy)phenyl)pyridin-2-yl)((4-(5-(1-fluorocyclopropyl)-1,2,4-oxadiazol-3-yl)bicyclo[2.2.2]octan-1-yl)methyl)carbamate]	50
